Assay results from patent US9403843B2, “Cysteine protease inhibitors and uses thereof” (The Trustees of Columbia University in the City of New York, priority 2012, dated 2016).

Tests used:
papain = papain (Carica papaya (Papaya), UniProt P00784); assay: biochemical; assay type: biochemical
Cal1cat vs CathB = assay: Competition assay for Cal1 vs CathB using the biotinylated epoxide probe; assay type: binding, rat
full-length human Cal1 = full-length human Cal1 (Homo sapiens (Human), UniProt P07384); assay: Calpain inhibition FRET assay; assay type: biochemical; conditions: Table 3, 20 min incubation, FRET substrate
full-length human Cal1, sequence (P07384 whole entry): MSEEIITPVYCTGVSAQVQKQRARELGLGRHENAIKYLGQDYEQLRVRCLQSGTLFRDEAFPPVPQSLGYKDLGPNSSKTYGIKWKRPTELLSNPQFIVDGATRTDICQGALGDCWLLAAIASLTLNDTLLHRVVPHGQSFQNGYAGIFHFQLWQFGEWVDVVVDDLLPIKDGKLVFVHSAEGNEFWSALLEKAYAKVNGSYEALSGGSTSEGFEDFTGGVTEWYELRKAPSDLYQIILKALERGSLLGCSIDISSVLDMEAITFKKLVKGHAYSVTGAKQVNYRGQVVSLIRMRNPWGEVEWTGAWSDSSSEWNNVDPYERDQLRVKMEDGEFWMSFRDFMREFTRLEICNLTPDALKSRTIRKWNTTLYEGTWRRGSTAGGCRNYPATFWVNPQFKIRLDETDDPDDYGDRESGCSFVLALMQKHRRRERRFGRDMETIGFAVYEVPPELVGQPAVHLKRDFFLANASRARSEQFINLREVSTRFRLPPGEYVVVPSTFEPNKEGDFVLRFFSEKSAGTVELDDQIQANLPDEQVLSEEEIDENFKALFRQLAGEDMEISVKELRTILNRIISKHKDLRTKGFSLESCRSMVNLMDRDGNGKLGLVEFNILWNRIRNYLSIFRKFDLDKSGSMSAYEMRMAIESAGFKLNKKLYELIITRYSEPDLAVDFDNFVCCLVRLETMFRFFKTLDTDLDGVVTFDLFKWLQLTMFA
full-length human Cal1, sequence (P04632 whole entry partner): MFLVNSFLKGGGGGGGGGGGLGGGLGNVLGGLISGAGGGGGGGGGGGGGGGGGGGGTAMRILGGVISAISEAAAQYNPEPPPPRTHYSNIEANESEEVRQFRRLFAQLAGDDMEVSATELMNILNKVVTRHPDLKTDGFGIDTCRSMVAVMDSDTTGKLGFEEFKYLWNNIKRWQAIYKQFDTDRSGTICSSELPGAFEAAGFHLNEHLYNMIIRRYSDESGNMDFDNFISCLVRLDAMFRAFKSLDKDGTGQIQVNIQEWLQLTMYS

[1] = molecular target: Full length porcine calpain (Sus scrofa (Pig), UniProt P35750); assay: Calpain inhibition kinetics studies (Suc-LLVY-AMC substrate); assay type: biochemical
Full length porcine calpain, sequence (P35750 whole entry): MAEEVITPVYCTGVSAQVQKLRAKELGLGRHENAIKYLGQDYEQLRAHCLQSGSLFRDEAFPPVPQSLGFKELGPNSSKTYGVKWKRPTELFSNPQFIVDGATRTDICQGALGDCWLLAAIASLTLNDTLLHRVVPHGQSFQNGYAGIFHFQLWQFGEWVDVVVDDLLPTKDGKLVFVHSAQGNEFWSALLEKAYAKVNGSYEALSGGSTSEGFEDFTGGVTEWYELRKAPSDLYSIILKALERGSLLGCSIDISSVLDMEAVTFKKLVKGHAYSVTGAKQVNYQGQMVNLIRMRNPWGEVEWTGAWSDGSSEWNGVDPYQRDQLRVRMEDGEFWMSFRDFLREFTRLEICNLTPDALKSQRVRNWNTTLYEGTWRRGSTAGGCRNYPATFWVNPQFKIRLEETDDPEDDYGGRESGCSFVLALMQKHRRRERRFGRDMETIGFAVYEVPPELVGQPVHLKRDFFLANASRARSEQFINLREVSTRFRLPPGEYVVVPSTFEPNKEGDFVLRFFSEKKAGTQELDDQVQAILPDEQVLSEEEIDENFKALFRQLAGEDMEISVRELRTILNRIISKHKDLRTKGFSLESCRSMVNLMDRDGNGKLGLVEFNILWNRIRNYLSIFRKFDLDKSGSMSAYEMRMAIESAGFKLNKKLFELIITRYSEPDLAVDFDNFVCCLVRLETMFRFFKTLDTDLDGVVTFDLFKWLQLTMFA
Full length porcine calpain, sequence (P04574 whole entry partner): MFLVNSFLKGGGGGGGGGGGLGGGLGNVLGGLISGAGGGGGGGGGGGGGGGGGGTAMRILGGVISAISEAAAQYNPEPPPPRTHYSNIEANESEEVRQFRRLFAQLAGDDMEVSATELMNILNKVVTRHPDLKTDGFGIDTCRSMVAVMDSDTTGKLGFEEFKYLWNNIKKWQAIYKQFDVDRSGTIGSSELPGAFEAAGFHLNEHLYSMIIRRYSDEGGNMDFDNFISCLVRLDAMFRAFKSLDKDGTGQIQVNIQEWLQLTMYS

APP/PS1 mice = assay: Behavioral rescue assays (contextual fear memory, 2-day RAWM reference memory); assay type: in vivo
[2] = Acute and chronic toxicity, maximum tolerated dose; assay type: in vivo; conditions: mouse, in vivo; mice; no malaise or death
From the text: For evaluation of acute and chronic toxicity we measured the maximum tolerated dose (MTD) in mice for 30a, 33 and 50.

[3] = test system: calpain-generated spectrin fragments; assay: Spectrin proteolytic degradation products in hippocampi, western blot; assay type: in vivo
Method: Studies were performed to determine capability of lowering levels of spectrin proteolytic degradation products in hippocampi from adult animals. Using western blot analysis, prevention of calpain-generated spectrin fragments was checked following i.p. treatment for 12 days with 30a, 33 and 50 at the same concentrations used for PK assessment. The array of vehicle samples was obtained by loading samples with 5, 10, 15, and 20 μg total protein/lane. Samples from compound treated animals were loaded at 15 μg/lane.

[4] = ki/Ki calculated relative to E-64
[5] = mean ± S.D. of triplicate experiments
[6] = APP/PS1 mice, daily treatment from 2 until 7 months

papain, sequence (P00784 134-345): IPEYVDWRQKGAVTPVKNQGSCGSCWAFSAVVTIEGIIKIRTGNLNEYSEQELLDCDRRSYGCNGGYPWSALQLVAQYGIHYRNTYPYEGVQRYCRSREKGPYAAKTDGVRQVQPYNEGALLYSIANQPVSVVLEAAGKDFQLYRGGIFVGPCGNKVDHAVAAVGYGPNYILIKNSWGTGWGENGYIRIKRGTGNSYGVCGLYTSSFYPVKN

For `O=C(O)C1OC1C(=O)N[C@@H](Cc1cscn1)C(=O)Nc1nc(-c2ccc(F)cc2)cs1` (stereo in doubt) [Compound 33, (2S,3S)-3-((S)-1-(4-(4-fluorophenyl)thiazol-2-ylamino)-1-oxo-3-(thiazol-4-yl)propan-2-ylcarbamoyl)oxirane-2-carboxylic acid], the Ki (papain; apparent equilibrium constant, read-out: K1 Papain) was 5300 nM, the “ki Papain” value (papain; inhibition rate) was 14.8 s⁻¹ and the “rel Papain” value (papain; [4]) was 0.50. For the same molecule, the “10^−5 × ki/Ki Papain” value (papain; [5]) was 27.9 ± 4.7, the “blocking of active site modification by probe 27 (western blot signal)” value (Cal1cat vs CathB; 10 min pre-treatment, then 20 min with 27) was “little change in the CathB signal” and the “selectivity for Cal1cat (ratio of Cal1cat versus CathB band intensities)” value (Cal1cat vs CathB; ratio for probe 27 alone set as 1.0, inhibitor 5 μM) was “highest selectivity”. The IC50 (full-length human Cal1) was 100 nM, the Ki ([1]; apparent equilibrium constant, full length Cal1, read-out: K1 Calpain1) was 2600 nM and the “ki Calpain1” value ([1]; inhibition rate, full length Cal1) was 0.08 s⁻¹. For the same molecule, the “relative selectivity for inhibition of Cal1 over papain (in words)” value ([1]; ki/Ki as measure, compared with E-64) was “Cal1 selectivity”, the “rel Calpain1” value [1, 4] was 0.98 and the “10^−4 × ki/Ki Calpain1” value [1, 5] was 2.96 ± 0.14. For the same molecule, the reference memory (APP/PS1 mice; 3 month old APP/PS1 mice, 2-day RAWM, daily from 2 months) was “beneficial”, the contextual fear memory (APP/PS1 mice; 3 month old APP/PS1 mice, daily i.p. from 2 months) was “beneficial” and the memory impairment (APP/PS1 mice; 7 month old APP/PS1 mice, chronic administration) was “beneficial”. For the same molecule, the contextual fear memory (APP/PS1 mice; [6]) was “ameliorated”, the reference memory (APP/PS1 mice; [6]) was “ameliorated” and the MTD [2] was 150 mg/kg. For the same molecule, the “prevention of spectrin cleavage by calpains in hippocampi” value ([3]; i.p. treatment for 12 days, doses as for PK) was “dramatically reduced the amount of fragments” and the brain penetration ([3]; inferred from hippocampal spectrin cleavage) was “capable of effectively penetrating the brain”.
